Key:
MYC RNA = experiment: RT-qPCR of MYC RNA in human cancer cell lines; type: cell-based; settings: 24 h, about 1 μM, 1-day incubation, e.g., A549, HepG2, beta-actin normalized, vs DMSO, read-out: % reduction of MYC RNA
Experimental: The level of reduction of MYC RNA following treatment with test compounds is assessed using RT-qPCR according to the following protocol. The human cancer cell lines (e.g., A549, HepG2) are seeded at 20,000 cells per well in a 96-well plate. After 1 day, the cells are treated with test compounds at a final concentration of about 1 μM. After a 1-day incubation period, the supernatant is removed from the wells and lysis solution from the Cells-to-CT 1-Step Power SYBR Green Kit (Invitrogen A25599) is added to create cell lysates, according to the kit manufacturer's protocol. The kit manufacturer's protocol is then followed to perform RT-qPCR for each sample using a pair of MYC-specific primers (e.g., SEQ ID NO: 4 and SEQ ID NO: 5) to detect MYC RNA, as well as a pair of beta-actin-specific primers (e.g., SEQ ID NO: 6 and SEQ ID NO: 7) to detect beta-actin RNA, which serves as a loading control. The relative expression levels of MYC and beta-actin RNAs are calculated using a standard curve generated from a dilution series of untreated cell lysates. The normalized level of MYC RNA following treatment with a test compound is calculated by dividing the relative expression level of MYC in the sample by the relative expression level of beta actin in the same sample. The value so obtained is presented as a percentage of that of the no-compound, solvent only (DMSO)-treated sample. A lower percentage of MYC RNA in a sample with respect to the DMSO-treated sample indicates greater percentage reduction in MYC RNA levels due to the test compound, and vice versa.

HEK-293 = experiment: CellTiter-Glo 2.0 cell viability assay, HEK-293; type: cell-based; settings: Homo sapiens, HEK293, 48 h; CellTiter-Glo 2.0, HEK-293, 2-day incubation
Experimental: The effect of test compounds on cell viability is also determined using the CellTiter-Glo 2.0 assay kit (Promega G9241) according to the following protocol. The human cancer cell line (e.g., HepG2) and a non-cancer human cell line (e.g., HEK-293), are seeded at 20,000 cells per well in a 96-well plate. After 1 day, the cells are treated with test compounds at various concentrations (e.g., 10 nM, 31.6 nM, 100 nM, 316 nM, 1 μM, 3.16 μM, 10 μM, 20 μM, etc.). After a 2-day incubation period, the CellTiter-Glo 2.0 assay is performed according to the kit manufacturer's protocol. […] The contents are mixed for 2 minutes on an orbital shaker to induce cell lysis, and incubated for 10 minutes at room temperature, following which the luminescent signal is measured using a microplate reader. […] The cytotoxic effect of test compounds at different concentrations is calculated by subtracting from 1 the ratio of the luminescence signal of the compound-treated sample to that of the no-compound, solvent only (DMSO)-treated sample. […] The IC50 values for the cytotoxic effect of each test compound in HepG2 cells are determined by plotting a dose-response curve to calculate the concentration of test compound that produces half of the maximum cytotoxic effect. […]

`Cc1nc(C)c(-c2ccc(=O)n(CC3CCN(c4ncnc5ncccc45)CC3)n2)s1` [6-(2,4-dimethylthiazol-5-yl)-2-((1-(pyrido[2,3-d]pyrimidin-4-yl)piperidin-4-yl)methyl)pyridazin-3(2H)-one] was tested, and the inhibition at 1 µM (MYC RNA) was 45% and the IC50 (HEK-293) was 72.9 µM.

Source: patent publication US20250368623A1, “PYRIDAZINONE-DERIVED COMPOUNDS FOR THE MODULATION OF MYC AND FOR MEDICAL USES” (GENETIC INTELLIGENCE, INC, priority 2022, published 2025)
